{"source": "patent US20070134670A1", "about": "“Methods for prediction and prognosis of cancer, and monitoring cancer therapy” (BAYER PHARMACEUTICALS CORPORATION, priority 2003, published 2007)", "system": "stanniocalcin expression in HMVEC cells", "assay": "In vitro endothelial cell gene expression profiling (Affymetrix / TaqMan), HMVEC", "assay_type": "cell-based, human", "settings": "HMVECs; VEGF 10 ng/ml with heparin, 2 hours (FIG. 2A)", "excerpt": "Pooled human microvascular endothelial cells (HMVECs) or human umbilical vein endothelial cells (HUVECs) were purchased as 2 T75 flasks (Clonetics, Cambrex Corporation, East Rutherford, N.J.). Cells were expanded in fill Clonetics growth media (EGF+5% FCS) on 2% gelatin coated flasks until sufficient numbers were obtained to perform the experiment (4 flasks each at less than 6 passages). Prior to the treatments, cells were washed 2× in PBS and starved overnight in basal media (EBM+0.2% endotoxin free BSA). The next day, media was removed and replaced with 25 ml of EBM+BSA. VEGFR2 inhibitor (drug) stock was made in DMSO and added to a final concentration of 100 nm in 0.1% DMSO. Heparin was used at 1.5 U/ml final concentration. VEGF final concentration was 10 ng/ml. Drug/DMSO was added for 30 minutes prior to adding VEGF/Heparin for 2 hours. […] RNA was subsequently isolated via Qiagen midi spin kits and quantitated by OD260/280 and gel visualization and/or Agilent bioanalyzer.\nSamples were organically extracted and ethanol precipitated. […] The resulting cRNA was put through RNeasy clean-up protocol, and then quantified using UV spectrophotometry. […]\nA master mix of the primers at 50 μM each was prepared. The samples were analyzed by standard PCR conditions on an ABI PRISM 7700 Sequence Detector using SYBR green probes. β-actin was used as controls for loading normalization.", "data": [{"substance": "VEGF", "values": [{"measurement": "human stanniocalcin-1 expression induced after treatment with VEGF", "value": "~20", "unit": "fold"}]}]}
